Data as given in paper PMC7557804, “The Anti-Microbial Peptide (Lin-SB056-1)2-K Reduces Pro-Inflammatory Cytokine Release through Interaction with Pseudomonas aeruginosa Lipopolysaccharide” (Antibiotics, 2020).
“Also recorded” adds a separate entry of the source.

What was measured:
THP-1 macrophages [1] = test: LPS-induced cytokine production by THP-1 macrophages; assay type: cell-based, Human; conditions: P. aeruginosa LPS 10 ng/mL, 4 h, 37 °C, 5% CO2
Protocol: (§1) Human non-small-cell lung adenocarcinoma A549 cells (ATCC CCL-185; LGC Standards, Milan, Italy) and human monocytic THP-1 cells (ATCC TIB-202; LGC Standards) were cultured in tissue culture flasks in Dulbecco’s modified essential medium (DMEM) (Euroclone, Milan, Italy) and RPMI 1640 medium (Euroclone), respectively. Both media were supplemented with 2 mM L-glutamine (Euroclone) and 10% heat-inactivated fetal bovine serum (FBS; Euroclone). Confluent monolayers were detached from the culture flask with 0.25% trypsin/1 mM EDTA solution (Euroclone), suspended in complete culture medium and seeded into flat-bottom 96-well plates at a final density of 1 × 10^4 cells/well (A549) and 2 × 10^4 cells/well (THP-1). A549 cells were cultured for 24 h at 37 °C, 5% CO2 in order to allow adhesion and formation of semi-confluent monolayers. THP-1 cells were cultured for 3 days (37 °C, 5% CO2) in the presence of 100 nM TPA (Sigma-Aldrich, St. Louis, MO, USA) to induce their differentiation into macrophage-like cells.
The anti-inflammatory potential of lin-SB056-1 and (lin-SB056-1)2-K was assessed by evaluating their ability to reduce LPS-induced production of pro-inflammatory cytokines by A549 cells and THP-1 macrophages. […] Following incubation, cell culture supernatants were collected, filter sterilized (0.22 µm) and employed for the quantification of cytokines and the assessment of cell viability.
(§2) Different pro-inflammatory cytokines (i.e., IL-1β, IL-6, IL-8 and TNF-α) were quantified in cell culture supernatants through a bead-based multiplex immunoassay (LEGENDplex multi-analyte flow assay kit; BioLegend, San Diego, CA, USA) following manufacturer’s instructions. […] Following consecutive washing steps, the beads were resuspended in the LEGENDplex wash buffer and the samples were analyzed by flow cytometry (BD Accuri C6 flow cytometer; BD Biosciences, Mountain View, CA, United States). Data were acquired with the BD Accuri C6 software (BD Biosciences) (300 events per analyte) and analyzed with the LEGENDplex software (BioLegend). […]

A549 cells = test: Cytotoxicity (LDH release) towards A549 cells; assay type: cell-based, Human; conditions: LPS-stimulated A549, 4 h
Protocol: as §1
(§3) The cytotoxicity of lin-SB056-1 and (lin-SB056-1)2-K towards A549 and THP-1 cells was evaluated to exclude a possible correlation between reduction in cytokine levels and decrease in cell numbers. To this end, culture supernatants of cells stimulated with LPS in the presence of the peptides were employed to quantify the amount of cytoplasmic LDH released by dead cells. Cells incubated in culture medium alone or in the presence of LPS served as an indication of spontaneous cell death (cell viability controls), while cells treated with a commercial lysis buffer (Pierce LDH cytotoxicity assay kit, Thermo Fisher Scientific) were used as cell death control (100% cell lysis). The enzymatic activity of LDH in cell supernatants was measured using the Pierce LDH cytotoxicity assay kit (Thermo Fisher Scientific) following manufacturer’s instructions. The cytotoxic effect was determined as follows: cytotoxicity (%) = [(LDH activity of A/LDH activity of B) × 100], where A represents peptide-treated or untreated cells (both in the presence and absence of LPS), and B corresponds to the cell lysis control.

THP-1 macrophages [2] = test: Cytotoxicity (LDH release) towards THP-1 macrophages; assay type: cell-based, Human; conditions: 4 h
Protocol: as §1, §3

[3] = LAL assay, LPS neutralization; assay type: biochemical, Escherichia coli; conditions: E. coli 011:B4 LPS 2 EU/mL, 37 °C
Protocol: The ability of lin-SB056-1 and (lin-SB056-1)2-K to neutralize the activity of LPS was analyzed using a standardized LAL assay (Pierce LAL chromogenic endotoxin quantitation kit; Thermo Fisher Scientific). Peptides at different concentrations (2.4 to 19.25 μM) were pre-incubated with E. coli 011:B4 LPS (2 Endotoxin Units (EU)/mL; EU = unit of measurement for endotoxin activity) for 30 min (37 °C, shaking) in order to promote the interaction between the two molecules. LPS alone was used as positive control. Following incubation, peptide-treated and untreated samples were mixed with the LAL reagent (1:1 ratio) and incubated for 10 min at 37 °C. Subsequently, 100 μL of the chromogenic substrate were added and incubated with the samples for 6 min. The reaction was terminated by adding 100 μL of acetic acid (25% v/v), and absorbance was measured at 405 nm ([…]) using a microplate reader (Multiscan FC, Life Technologies Italia, Monza, Italy). The amount of peptide-sequestered LPS was determined as follows: LPS neutralization (%) = [100 − (ODpeptide/ODpositive control × 100)].

[4] = tested on: lung epithelial- and macrophage-cell lines stimulated with P. aeruginosa LPS; test: LPS-induced production of pro-inflammatory cytokines, overall result; assay type: cell-based, Human
Protocol: The anti-inflammatory potential of lin-SB056-1 and (lin-SB056-1)2-K was assessed by evaluating their ability to reduce LPS-induced production of pro-inflammatory cytokines by A549 cells and THP-1 macrophages. In order to ensure cytokine production, cell monolayers were stimulated with LPS from P. aeruginosa serotype 10 (purified by phenol extraction; Sigma-Aldrich, Milano, Italy) at a final concentration of 10 ng/mL (THP-1) and 800 ng/mL (A549). LPS concentrations used in the experiments were chosen based on preliminary assays aimed at identifying the minimum dose of the molecule able to stimulate cytokine production after 4 h of exposure. […] Following incubation, cell culture supernatants were collected, filter sterilized (0.22 µm) and employed for the quantification of cytokines and the assessment of cell viability.
as §2, with “States).” for “States). Data were acquired with the BD Accuri C6 software (BD Biosciences) (300 events per analyte) and analyzed with the LEGENDplex software (BioLegend).”

[5] = 9.6 μM peptide, vs LPS-stimulated peptide-untreated control, statistically significant, mean of three independent experiments

What does the source list for “[KWKIRVRLSA]2-K [(lin-SB056-1)2-K, dendrimeric derivative of lin-SB056-1]”?
reduction in secretion of IL-1β (THP-1 macrophages [1]; [5]): 80%; reduction in secretion of IL-6 (THP-1 macrophages [1]; [5]): 60%; effect on TNF-α levels (THP-1 macrophages [1]; three independent experiments): a trend in decreasing TNF-α levels, no statistical significance was reached; cell death (LDH release), with LPS (A549 cells; up to 19.25 μM (highest tested), 37 °C, 5% CO2, relative to cell lysis control, at least three independent experiments): less than 5%; toxicity (A549 cells; up to 19.25 μM, LDH release): no detectable toxicity; cell death (LDH release), with LPS (THP-1 macrophages [2]; LPS-stimulated THP-1 macrophages, up to 19.25 μM (highest tested), 37 °C, 5% CO2, relative to cell lysis control, at least three independent experiments): less than 5%; toxicity (THP-1 macrophages [2]; LPS-stimulated THP-1 macrophages, up to 19.25 μM, LDH release): no detectable toxicity; cell death (LDH release), co-cultured with peptide and LPS (THP-1 macrophages [2]; THP-1 macrophages, 19.25 μM peptide with LPS, 37 °C, 5% CO2, mean of at least three independent experiments): 5%; cell death (LDH release), in the absence of LPS (THP-1 macrophages [2]; THP-1 macrophages, 19.25 μM peptide, no LPS, 37 °C, 5% CO2, mean of at least three independent experiments): 14%; LPS neutralization ([3]; 19.25 μM peptide, pre-incubation 30 min, shaking, LAL reagent 10 min, chromogenic substrate 6 min, absorbance 405 nm (OD450), vs peptide-untreated control, mean of three independent experiments): ~100%; LPS neutralization / LAL activity ([3]; 2.4 to 19.25 μM peptide, 30 min): higher LPS-binding ability than lin-SB056-1; also recorded: reduction of LAL activity; anti-inflammatory effect compared to monomeric counterpart ([4]; LPS and/or P. aeruginosa stimulation): superior anti-inflammatory effect compared to its monomeric counterpart; decrease in LPS-induced production of pro-inflammatory cytokines (IL-1β, IL-6 and IL-8) ([4]; lung epithelial- and macrophage-cell lines, P. aeruginosa LPS): up to 80%
